The target in assay [1] is T1, EGFR L858R/T790M/C797S (BaF3-LTC cells) (Homo sapiens, UniProt P00533, C797S/L858R/T790M).
T1 construct: expressed in transfected cells; host or cells: BaF3
The experiment in a line: EGFR degradation HTRF assay, BaF3-LTC cells. It is filed as cell-based. In outline:
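EGFR remaining after a 16 h, 37 °C exposure (8 doses, 5-fold steps from 10 uM final, 0.2% DMSO) was quantified by HTRF antibodies in cell lysate. Percent inhibition relative to DMSO control was fitted by four-parameter logistic to give DC50; Dmax denotes maximal degradation.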
(Time-resolved FRET reads energy transfer from a long-lived donor to a nearby acceptor.)

In assay [2] the test system is EGFR Del19/T790M/C797S (H1975-clone #28). As to the kind of experiment: EGFR degradation HTRF assay, H1975-clone #28 DTC cells. The class given is cell-based. The procedure, abridged:
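Lentiviral Del19/T790M/C797S (clone #28) or Del19/C797S (clone #23) EGFR expressed in H1975 with endogenous EGFR knocked out. Cells treated 16 h, 37 °C, 8 doses, 5-fold from 10 uM top, 0.2% DMSO; EGFR read by HTRF after lysis. Degradation % vs DMSO control; DC50, Dmax from four-parameter fit.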

[3] abbreviates: BaF3-LTC cells; EGFR degradation, IC50 (DC50) from curve fit; read-out: DC50(nM) BaF3-LTC.
Where [4] appears, read: BaF3-LTC cells; maximum percentage of inhibition (degradation); read-out: Dmax (%) BaF3-LTC.
Where [5] appears, read: H1975 # 28 DTC cells; EGFR degradation, IC50 (DC50) from curve fit; read-out: DC50(nM) H1975 # 28 DTC.
The mark [6] stands for this setting: H1975 # 28 DTC cells; maximum percentage of inhibition (degradation).

The structures appear in SMILES notation. Read-outs that look alike come from different tables or passages of the source.

Consider five compounds from US20230265116A1, “DEGRADATION OF (EGFR) BY CONJUGATION OF EGFR INHIBITORS WITH E3 LIGASE LIGAND AND METHODS OF USE” (BEIGENE, LTD., priority 2020, published 2023).

T1 sequence (P00533 25-1210 T790M/C797S/L858R): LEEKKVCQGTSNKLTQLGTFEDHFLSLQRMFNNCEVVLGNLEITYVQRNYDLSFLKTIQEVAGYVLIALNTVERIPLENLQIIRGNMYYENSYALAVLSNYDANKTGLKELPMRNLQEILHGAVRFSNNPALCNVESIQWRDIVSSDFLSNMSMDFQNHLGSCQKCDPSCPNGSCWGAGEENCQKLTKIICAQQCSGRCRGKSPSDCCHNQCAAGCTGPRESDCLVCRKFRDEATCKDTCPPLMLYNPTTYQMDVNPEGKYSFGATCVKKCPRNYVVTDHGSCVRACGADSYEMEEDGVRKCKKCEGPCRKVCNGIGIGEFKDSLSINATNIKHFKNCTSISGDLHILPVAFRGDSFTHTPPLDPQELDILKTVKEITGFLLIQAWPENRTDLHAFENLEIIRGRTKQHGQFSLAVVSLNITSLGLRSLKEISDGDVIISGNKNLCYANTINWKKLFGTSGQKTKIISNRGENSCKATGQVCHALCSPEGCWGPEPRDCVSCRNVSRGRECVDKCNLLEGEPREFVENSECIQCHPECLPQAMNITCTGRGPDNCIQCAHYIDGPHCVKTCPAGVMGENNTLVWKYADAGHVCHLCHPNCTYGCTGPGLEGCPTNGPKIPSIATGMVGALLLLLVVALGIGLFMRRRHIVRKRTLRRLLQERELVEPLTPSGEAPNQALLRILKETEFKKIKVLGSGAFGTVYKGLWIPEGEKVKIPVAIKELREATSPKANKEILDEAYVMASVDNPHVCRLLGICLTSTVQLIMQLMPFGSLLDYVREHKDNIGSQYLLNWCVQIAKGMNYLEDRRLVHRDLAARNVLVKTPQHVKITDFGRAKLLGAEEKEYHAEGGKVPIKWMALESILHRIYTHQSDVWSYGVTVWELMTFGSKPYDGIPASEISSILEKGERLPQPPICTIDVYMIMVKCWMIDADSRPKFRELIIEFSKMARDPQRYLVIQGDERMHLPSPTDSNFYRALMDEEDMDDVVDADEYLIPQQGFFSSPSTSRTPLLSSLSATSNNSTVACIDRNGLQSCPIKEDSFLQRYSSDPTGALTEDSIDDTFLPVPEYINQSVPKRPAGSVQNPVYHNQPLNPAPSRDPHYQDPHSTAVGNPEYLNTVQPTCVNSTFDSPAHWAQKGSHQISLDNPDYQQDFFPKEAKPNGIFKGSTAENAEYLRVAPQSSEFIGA

As usually defined, the DC50 is the concentration giving 50% degradation. For orientation: Dmax means the largest share of the target that was removed. Turning to `CCc1ccc2c(P(C)(C)=O)c(Nc3nc(Nc4cc(CC)c(N5CCC(N6CCN(C(=O)[C@@H]7CCN(c8cc(F)c(C9CCC(=O)NC9=O)c(F)c8)C7)CC6)CC5)cc4OC)ncc3Br)ccc2n1` (stereo partly drawn) [Example 515, 3-(4-((R)-3-(4-(1-(4-((5-bromo-4-((5-(dimethylphosphoryl)-2-ethylquinolin-6-yl)amino)pyrimidin-2-yl)amino)-2-ethyl-5-methoxyphenyl)piperidin-4-yl)piperazine-1-carbonyl)pyrrolidin-1-yl)-2,6-difluorophenyl)piperidine-2,6-dione], the DC50 in assay [1] (setting [3]) turned out to be 19.7 nM; in assay [2] (setting [5]) it was 3.22 nM. In assay [1] (setting [4]), the Dmax was 90.4%. The “Dmax (%) H1975 # 28 DTC” value in assay [2] (setting [6]) was 66.35%.
On to `CCOc1cc(N2CCC(N3CCN(CCc4cc5oc(=O)n(C6CCC(=O)NC6=O)c5cc4F)CC3)CC2)c(CC)cc1Nc1ncc(Br)c(Nc2ccc3nc(CC)ncc3c2P(C)(C)=O)n1` (centres unmarked) [Example 609, 3-(6-(2-(4-(1-(4-((5-bromo-4-((5-(dimethylphosphoryl)-2-ethylquinazolin-6-yl)amino)pyrimidin-2-yl)amino)-5-ethoxy-2-ethylphenyl)piperidin-4-yl)piperazin-1-yl)ethyl)-5-fluoro-2-oxobenzo[d]oxazol-3(2H)-yl)piperidine-2,6-dione], for which, in assay [1] (BaF3-LTC cells; maximum percentage of inhibition (degradation)), the “Dmax (%) BaF3-LTC” value came out at 89.57%. The DC50 was determined as 11.5 nM in assay [1] (read-out: DC50(nM) BaF3-LTC; BaF3-LTC cells; EGFR degradation, IC50 (DC50) from curve fit) and 3.07 nM in assay [2] (read-out: DC50(nM) H1975 # 28 DTC; H1975 # 28 DTC cells; EGFR degradation, IC50 (DC50) from curve fit). In addition, the “Dmax (%) H1975 # 28 DTC” value in assay [2] (setting [6]) was determined as 74.7%.
Take `CCc1cc(Nc2ncc(Br)c(Nc3ccc4ncncc4c3P(C)(C)=O)n2)c(OC)cc1N1CCC(N2CCN(C(=O)[C@@H]3CCN(c4cc(F)c([C@H]5CCC(=O)NC5=O)c(F)c4)C3)CC2)CC1` [Example 668, (R)-3-(4-((R)-3-(4-(1-(4-((5-bromo-4-((5-(dimethylphosphoryl)quinazolin-6-yl)amino)pyrimidin-2-yl)amino)-2-ethyl-5-methoxyphenyl)piperidin-4-yl)piperazine-1-carbonyl)pyrrolidin-1-yl)-2,6-difluorophenyl)piperidine-2,6-dione]: the results for the DC50 in assay [1] (setting [3]) and in assay [2] (setting [5]) were 2.32 nM and 0.579 nM, respectively. Besides, the Dmax in assay [1] (setting [4]) was 91.5%. Also, in assay [2] (setting [6]), the “Dmax (%) H1975 # 28 DTC” value is given as 86.5%.
For `CCc1cc(Nc2ncc(Br)c(Nc3ccc4nc(C)ccc4c3P(C)(C)=O)n2)c(OC)cc1N1CCC(N2CCN(CCC3CN(c4cccc5c4CN(C4CCC(=O)NC4=O)C5=O)C3)CC2)CC1` (centres unmarked) [Example 692, 3-(4-(3-(2-(4-(1-(4-((5-bromo-4-((5-(dimethylphosphoryl)-2-methylquinolin-6-yl)amino)pyrimidin-2-yl)amino)-2-ethyl-5-methoxyphenyl)piperidin-4-yl)piperazin-1-yl)ethyl)azetidin-1-yl)-1-oxoisoindolin-2-yl)piperidine-2,6-dione], in that order: 6.68 nM, 0.593 nM, 91.4% and 73%.
With `CCc1cc(Nc2ncc(Br)c(Nc3ccc4nc(COC)ccc4c3P(C)(C)=O)n2)c(OC)cc1N1CCC(N2CCN(CCc3cc(F)c(C4CCC(=O)NC4=O)c(F)c3)CC2)CC1` (centres unmarked) [Example 690, 3-(4-(2-(4-(1-(4-((5-bromo-4-((5-(dimethylphosphoryl)-2-(methoxymethyl)quinolin-6-yl)amino)pyrimidin-2-yl)amino)-2-ethyl-5-methoxyphenyl)piperidin-4-yl)piperazin-1-yl)ethyl)-2,6-difluorophenyl)piperidine-2,6-dione], the 50% degradation concentration (DC50) is 6.66 nM in assay [1] (setting [3]) and 0.689 nM in assay [2] (setting [5]). Further, the maximal degradation (Dmax) in assay [1] (setting [4]) turned out to be 90.6%. In assay [2] (setting [6]), the “Dmax (%) H1975 # 28 DTC” value is 77.81%.
